Test results reported in patent US20240279176A1, “SUBSTITUTED TRICYCLIC HETEROCYCLIC COMPOUNDS AS METALLO-BETA-LACTAMASE INHIBITORS” (priority 2021, published 2024).
Like-named read-outs stand apart in the source and are kept apart here.

Key:
[1] = biological target: IMP-1 (Serratia marcescens, UniProt P52699); assay: Enzyme activity: IC50 in fluorescence assay with cephalosporin substrate FC5; assay type: biochemical; conditions: 100 pM IMP-1, 10 μM FC5, 10 min pre-incubation
Method: (§1) The Class B beta-lactamases activities were measured in the presence of the test inhibitors in a fluorescence assay against an in-house synthesized fluorescent cephalosporin substrate FC5 (Berkel, et. al. J. Med. Chem. 2013, 56(17), 6945). The enzymes (NDM-1, IMP-1) and the substrate were diluted in 20 mM HEPES, pH 7.4, supplemented with 300 mM NaCl and 10 μM ZnSO4. In the assay, the final concentration of enzyme was 50 pM, and 100 pM for NDM-1, and IMP-1 respectively, and the final concentration of FC5 was 1.5 μM for NDM-1 and 10 μM for IMP-1. The test inhibitors/compounds were dissolved in dimethylsulfoxide (DMSO) and diluted in the assay with assay buffer (20 mM HEPES, pH 7.4, supplemented with 5% DMSO, 300 mM NaCl and 10 μM ZnSO4), resulting in a final concentration range of 0.008 μM to 25 μM. The assays were performed in 96-well microplate (flat bottom, black). The test inhibitors were incubated with the MBL enzyme for 10 min at room temperature, followed by addition the substrate and the fluorescence was recorded immediately (λex 380 nm, λem 460 nm) on a microplate reader. Using the initial velocity data plotted against the inhibitor concentration, the half-maximal inhibitory concentrations were calculated by an IC50 curve-fitting model in GraphPad Prism 9 software.

[2] = biological target: NDM-1 (Klebsiella pneumoniae, UniProt C7C422); assay: as above; assay type: biochemical; conditions: 50 pM NDM-1, 1.5 μM FC5, 10 min pre-incubation
Chain of NDM-1 (C7C422 29-270, looked up): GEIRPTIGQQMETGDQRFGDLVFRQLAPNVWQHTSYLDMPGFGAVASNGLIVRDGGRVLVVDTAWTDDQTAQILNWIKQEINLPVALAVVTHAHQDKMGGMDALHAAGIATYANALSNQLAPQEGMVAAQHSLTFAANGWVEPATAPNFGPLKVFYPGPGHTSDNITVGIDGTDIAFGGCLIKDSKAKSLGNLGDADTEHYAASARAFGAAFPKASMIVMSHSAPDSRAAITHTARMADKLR
Method: as §1

[3] = system: Klebsiella pneumoniae ATCC BAA-2146; assay: Minimum inhibitory concentration (MIC), broth-microdilution (CLSI); assay type: cell-based; conditions: ATCCBAA2146, compound alone, K. pneumoniae ATCC BAA-2146, read-out: Intrinsic MIC
Text: (§2) The strain included in the study was Klebsiella pneumoniae ATCC BAA-2146 (Himedia®, India) with presence of New Delhi metallo-β-lactamase (NDM-1) gene. The quality control reference strains Escherichia coli ATCC 25922 and Pseudomonas aeruginosa ATCC 27853 were procured from Himedia®, India.
MIC values were identified through broth-microdilution in sterilized 96-well polystyrene flat-bottom microtitre plates (Cole-Parmer®) according to the guideline of the Clinical and Laboratory Standards Institute (CLSI) (CLSI; Methods for dilution antimicrobial susceptibility tests for bacteria that grow aerobically; Clinical Laboratory Standards Institute, M07-A09, 2012). This method involves the use of BBL™ Cation-adjusted Mueller-Hinton II Broth (CA-MHB; BD) and the strain (Klebsiella pneumoniae ATCC BAA-2146) concentration was adjusted to 5×10^5 CFU/mL. After 16-18 h of incubation at various concentrations of Imipenem, Meropenem (Alfa Aesar), or test compounds at 37° C., MIC was defined as the lowest concentration of antibiotic or test compound with no visible growth.

[4] = system: Klebsiella pneumoniae ATCC BAA-2146; assay: Checkerboard synergy assay in combination with Imipenem; assay type: cell-based; conditions: K. pneumoniae ATCC BAA-2146; for Fold reduction in Imipenem MIC in the presence of compounds (μg/mL) 4: compound at 4 μg/mL; for Fold reduction in Imipenem MIC in the presence of compounds (μg/mL) 8: compound at 8 μg/mL; for Fold reduction in Imipenem MIC in the presence of compounds (μg/mL) 16: compound at 16 μg/mL; for Fold reduction in Imipenem MIC in the presence of compounds (μg/mL) 32: compound at 32 μg/mL
Text: as §2
(§3) The fold modulation activity of test compounds, in combination with Imipenem or Meropenem, was checked against Klebsiella pneumoniae ATCC BAA-2146 strain by the broth-microdilution checkerboard synergy assay. The plates contained 5×10^5 CFU/mL bacterial inocula and 2-fold serial dilutions of the antibiotics (128-2 μg/mL) as well as test compounds (32-4 μg/mL) in a total volume of 200 μL of CA-MHB. Dimethyl sulfoxide (DMSO, ≤2.5%) was included as vehicle control. Following 16-18 h of incubation at 37° C., the MICs of antibiotics as well as drug combinations were visually inspected.

[5] = system: Klebsiella pneumoniae ATCC BAA-2146; assay: Checkerboard synergy assay in combination with Meropenem; assay type: cell-based; conditions: K. pneumoniae ATCC BAA-2146; for Fold reduction in meropenem MIC in the presence of compounds (μg/mL) 4: compound at 4 μg/mL; for Fold reduction in meropenem MIC in the presence of compounds (μg/mL) 8: compound at 8 μg/mL; for Fold reduction in meropenem MIC in the presence of compounds (μg/mL) 16: compound at 16 μg/mL; for Fold reduction in meropenem MIC in the presence of compounds (μg/mL) 32: compound at 32 μg/mL
Text: as §2, §3

Chain of IMP-1 (P52699 19-246, looked up, species assumed): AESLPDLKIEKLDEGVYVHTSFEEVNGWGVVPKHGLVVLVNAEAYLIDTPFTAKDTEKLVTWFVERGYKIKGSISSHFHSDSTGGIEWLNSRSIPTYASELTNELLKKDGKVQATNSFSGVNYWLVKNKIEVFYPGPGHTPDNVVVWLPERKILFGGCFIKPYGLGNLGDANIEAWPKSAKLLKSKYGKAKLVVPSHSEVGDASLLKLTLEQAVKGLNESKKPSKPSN

| Compound | IC50 [1] [µM] | IC50 [2] [µM] | MIC ([3]; Imipenem series) [µg/mL] | MIC ([3]; meropenem series) [µg/mL] | Fold reduction in Imipenem MIC in the presence of compounds (μg/mL) 4 [4] [fold] | Fold reduction in Imipenem MIC in the presence of compounds (μg/mL) 8 [4] [fold] | Fold reduction in Imipenem MIC in the presence of compounds (μg/mL) 16 [4] [fold] | Fold reduction in Imipenem MIC in the presence of compounds (μg/mL) 32 [4] [fold] | Fold reduction in meropenem MIC in the presence of compounds (μg/mL) 4 [5] [fold] | Fold reduction in meropenem MIC in the presence of compounds (μg/mL) 8 [5] [fold] | Fold reduction in meropenem MIC in the presence of compounds (μg/mL) 16 [5] [fold] | Fold reduction in meropenem MIC in the presence of compounds (μg/mL) 32 [5] [fold] |
| --- | --- | --- | --- | --- | --- | --- | --- | --- | --- | --- | --- | --- |
| O=C(O)c1[nH]c2c(c1-c1cccc(F)c1F)CCc1ccccc1-2 [Example 47, 3-(2,3-difluorophenyl)-4,5-dihydro-1H-benzo[g]indole-2-carboxylic Acid] | 3.3 | 0.323 | > 128 | > 128 | 2 | 4 | 4 | 8 | 2 | 4 | 4 | 4 |
| Cc1cc(C)cc(-c2c(C(=O)O)[nH]c3c2CCc2ccccc2-3)c1 [Example 48, 3-(3,5-dimethylphenyl)-4,5-dihydro-1H-benzo[g]indole-2-carboxylic Acid] | 0.695 | 0.252 | > 128 | > 128 | 4 | 4 | 8 | 8 | 4 | 4 | 4 | 8 |
| O=C(O)c1[nH]c2c(c1-c1cccc(Cl)c1Cl)CCc1ccccc1-2 [Example 50, 3-(2,3-dichlorophenyl)-4,5-dihydro-1H-benzo[g]indole-2-carboxylic Acid] | 25 | 0.211 | > 128 | > 128 | 2 | 2 | 4 | 4 | – | 2 | 2 | 4 |
| O=C(O)c1[nH]c2c(c1-c1ccncc1)CCc1ccccc1-2 [Example 51, 3-(pyridin-4-yl)-4,5-dihydro-1H-benzo[g]indole-2-carboxylic Acid] | 11.1 | 0.604 | > 128 | > 128 | 4 | 4 | 8 | 8 | 4 | 4 | 8 | 8 |
| O=C(O)c1[nH]c2c(c1-c1cc(F)cc(F)c1)CCc1ccccc1-2 [Example 52, 3-(3,5-difluorophenyl)-4,5-dihydro-1H-benzo[g]indole-2-carboxylic Acid] | 4.87 | 0.158 | > 128 | > 128 | 4 | 4 | 8 | 8 | – | 2 | 2 | 4 |
| O=C(O)c1[nH]c2c(c1-c1cncc(F)c1)CCc1ccccc1-2 [Example 53, 3-(5-fluoropyridin-3-yl)-4,5-dihydro-1H-benzo[g]indole-2-carboxylic Acid] | 3.74 | 0.334 | > 128 | > 128 | 4 | 4 | 4 | 8 | – | 2 | 4 | 4 |
| O=C(O)c1[nH]c2c(c1-c1cncc(Cl)c1)CCc1ccccc1-2 [Example 54, 3-(5-chloropyridin-3-yl)-4,5-dihydro-1H-benzo[g]indole-2-carboxylic Acid] | 1.36 | 0.075 | > 128 | > 128 | 4 | 4 | 8 | 8 | 4 | 4 | 8 | 8 |
| COc1cc(F)ccc1-c1c(C(=O)O)[nH]c2c1CCc1ccccc1-2 [Example 56, 3-(4-fluoro-2-methoxyphenyl)-4,5-dihydro-1H-benzo[g]indole-2-carboxylic Acid] | 2.67 | 0.143 | > 128 | > 128 | – | – | – | 2 | 4 | 4 | 4 | 8 |
| COc1cc(Cl)cc(-c2c(C(=O)O)[nH]c3c2CCc2ccccc2-3)c1 [Example 59, 3-(3-chloro-5-methoxyphenyl)-4,5-dihydro-1H-benzo[g]indole-2-carboxylic Acid] | 0.552 | 0.015 | > 128 | > 128 | 4 | 4 | 8 | 16 | 4 | 8 | 8 | 16 |
| COc1cc(OC)cc(-c2c(C(=O)O)[nH]c3c2CCc2ccccc2-3)c1 [Example 61, 3-(3,5-dimethoxyphenyl)-4,5-dihydro-1H-benzo[g]indole-2-carboxylic Acid] | 0.495 | 0.049 | > 128 | > 128 | 4 | 8 | 8 | 8 | 4 | 4 | 8 | 8 |
